Values after ≈ are worked out from the molar mass of the structure shown.
Assays:
[1] = target: T1, mouse DHP-I (Mus musculus, UniProt P31428); assay: Test 2: stability against DHP-I (mouse); conditions: for residual amounts (%) after 3 hours: partly purified Mouse DHP-I, 100 μg (titer)/ml, 37° C., HPLC
T1 sequence (P31428 17-384): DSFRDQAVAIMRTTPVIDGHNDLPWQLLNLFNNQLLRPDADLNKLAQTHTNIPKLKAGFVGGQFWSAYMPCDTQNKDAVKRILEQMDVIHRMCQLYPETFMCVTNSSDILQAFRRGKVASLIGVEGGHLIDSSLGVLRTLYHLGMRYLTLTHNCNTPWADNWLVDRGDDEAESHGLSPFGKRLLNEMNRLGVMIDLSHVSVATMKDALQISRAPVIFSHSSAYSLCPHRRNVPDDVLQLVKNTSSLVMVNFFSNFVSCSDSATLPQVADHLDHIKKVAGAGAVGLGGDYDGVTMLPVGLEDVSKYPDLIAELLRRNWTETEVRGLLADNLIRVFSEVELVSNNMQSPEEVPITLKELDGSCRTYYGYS

[2] = target: T2, porcine renal DHP-I (Sus scrofa, UniProt P22412); assay: Test 2: stability against DHP-I (porcine); conditions: partly purified Porcine DHP-I, 100 μg (titer)/ml, 37° C., HPLC
T2 sequence (P22412 17-384): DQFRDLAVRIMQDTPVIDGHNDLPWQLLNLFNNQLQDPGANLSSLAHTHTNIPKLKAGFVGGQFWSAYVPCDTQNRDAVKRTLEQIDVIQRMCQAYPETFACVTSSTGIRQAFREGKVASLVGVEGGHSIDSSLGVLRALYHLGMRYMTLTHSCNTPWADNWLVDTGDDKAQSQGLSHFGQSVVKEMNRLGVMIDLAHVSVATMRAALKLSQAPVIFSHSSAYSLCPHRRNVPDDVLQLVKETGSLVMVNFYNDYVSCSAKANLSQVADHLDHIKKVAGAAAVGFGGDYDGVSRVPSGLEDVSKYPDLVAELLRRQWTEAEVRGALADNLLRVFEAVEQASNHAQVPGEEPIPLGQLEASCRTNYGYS

[3] = test system: S. pneumoniae PRC9; assay: Test 1: Anti-Microbial Activities (MIC); assay type: cell-based; conditions: S. pneumoniae PRC9, penicillin-hyperresistant strain (PRSP), Sensitivity Disk agar-N+5% Horse blood, inoculants 10^6 CFU/ml; for MIC: Streptococcus pneumoniae, read-out: minimum inhibiting concentrations (MIC)
Description: (§1) The minimum inhibiting concentrations (MIC, μg/ml) of the compounds according to the present invention to various pathogenic bacteria was measured in accordance with the method described in CHEMOTHERAPY, vol. 16, No. 1,99, 1968. The culture medium for measurement was Sensitivity Disk agar-N+5% Horse blood, and the amount of inoculants was 10^6 CFU/ml.

[4] = test system: E. coli NIHJ JC-2; assay: Test 1: Anti-Microbial Activities (MIC); assay type: cell-based; conditions: inoculants 10^6 CFU/ml; for MIC: Escherichia coli, NIHJJC2, Sensitivity Disk agar-N+5% Horse blood, read-out: minimum inhibiting concentrations (MIC)
Description: as §1

[5] = test system: K. pneumoniae PCI602; assay: Test 1: Anti-Microbial Activities (MIC); assay type: cell-based; conditions: Sensitivity Disk agar-N+5% Horse blood, inoculants 10^6 CFU/ml; for MIC: Klebsiella pneumoniae, read-out: minimum inhibiting concentrations (MIC)
Description: as §1

[6] = test system: M. catarrhalis W-0500; assay: Test 1: Anti-Microbial Activities (MIC); assay type: cell-based; conditions: inoculants 10^6 CFU/ml; for MIC: Moraxella catarrhalis, W0500, Sensitivity Disk agar-N+5% Horse blood, read-out: minimum inhibiting concentrations (MIC)
Description: as §1

[7] = test system: S. epidermidis ATCC14990; assay: Test 1: Anti-Microbial Activities (MIC); assay type: cell-based; conditions: Sensitivity Disk agar-N+5% Horse blood, inoculants 10^6 CFU/ml; for MIC: Staphylococcus epidermidis, read-out: minimum inhibiting concentrations (MIC)
Description: as §1

[8] = test system: H. influenzae PRC2; assay: Test 1: Anti-Microbial Activities (MIC); assay type: cell-based; conditions: Sensitivity Disk agar-N+5% Horse blood, inoculants 10^6 CFU/ml; for MIC: Haemophilus influenzae, read-out: minimum inhibiting concentrations (MIC)
Description: as §1

[9] = test system: E. hirae ATCC8043; assay: Test 1: Anti-Microbial Activities (MIC); assay type: cell-based; conditions: Sensitivity Disk agar-N+5% Horse blood, inoculants 10^6 CFU/ml; for MIC: Enterococcus hirae, read-out: minimum inhibiting concentrations (MIC)
Description: as §1

[10] = test system: S. aureus M126; assay: Test 1: Anti-Microbial Activities (MIC); assay type: cell-based; conditions: S. aureus M126, methicillin-hyperresistant strain (MRSA), Sensitivity Disk agar-N+5% Horse blood, inoculants 10^6 CFU/ml; for MIC: Staphylococcus aureus, read-out: minimum inhibiting concentrations (MIC)
Description: as §1

[11] = test system: H. influenzae PRC44; assay: Test 1: Anti-Microbial Activities (MIC); assay type: cell-based; conditions: Sensitivity Disk agar-N+5% Horse blood, inoculants 10^6 CFU/ml; for MIC: Haemophilus influenzae, read-out: minimum inhibiting concentrations (MIC)
Description: as §1

[12] = test system: P. vulgaris GN7919; assay: Test 1: Anti-Microbial Activities (MIC); assay type: cell-based; conditions: Sensitivity Disk agar-N+5% Horse blood, inoculants 10^6 CFU/ml; for MIC: Proteus vulgaris, read-out: minimum inhibiting concentrations (MIC)
Description: as §1

[13] = test system: C. freundii GN346; assay: Test 1: Anti-Microbial Activities (MIC); assay type: cell-based; conditions: Sensitivity Disk agar-N+5% Horse blood, inoculants 10^6 CFU/ml; for MIC: Citrobacter freundii, read-out: minimum inhibiting concentrations (MIC)
Description: as §1

[14] = test system: E. faecalis W-73; assay: Test 1: Anti-Microbial Activities (MIC); assay type: cell-based; conditions: inoculants 10^6 CFU/ml; for MIC: Enterococcus faecalis, W73, Sensitivity Disk agar-N+5% Horse blood, read-out: minimum inhibiting concentrations (MIC)
Description: as §1

[15] = test system: S. aureus 209P JC-1; assay: Test 1: Anti-Microbial Activities (MIC); assay type: cell-based; conditions: Sensitivity Disk agar-N+5% Horse blood, inoculants 10^6 CFU/ml; for MIC: Staphylococcus aureus, read-out: minimum inhibiting concentrations (MIC)
Description: as §1

[16] = Test 5: Acute Toxicity (i.v.); assay type: in vivo, mice (ICR, male); conditions: mice, 2,000 mg/kg i.v.
Description: The compounds of Examples 44, 62, 88, and 111 were tested again in the same manner as the above provided that cilastatin sodium was co-administered.

[17] = cilastatin sodium co-administered
[18] = Sensitivity Disk agar-N+5% Horse blood

Molecule	residual amounts (%) after 3 hours [1]	residual amounts (%) after 3 hours [2]	MIC [3]	MIC [4]	MIC [5]	MIC [6]	MIC [7]	MIC [8]	MIC [9]	MIC [10]	MIC [11]	MIC [12]	MIC [13]	MIC [14]	MIC [15]	further results
C[C@@H](O)[C@H]1C(=O)N2C(C(=O)O)=C(SCCN=CN)C[C@H]12 [Compound A, imipenem, reference compound]	14%	<0.3%	0.2 µg/mL (≈ 0.668 µM)	0.1 µg/mL (≈ 0.334 µM)	0.2 µg/mL (≈ 0.668 µM)	0.05 µg/mL (≈ 0.167 µM)	< 0.025 µg/mL	0.78 µg/mL (≈ 2.61 µM)	0.78 µg/mL (≈ 2.61 µM)	25 µg/mL (≈ 83.5 µM)	12.5 µg/mL (≈ 41.8 µM)	0.1 µg/mL (≈ 0.334 µM)	0.2 µg/mL (≈ 0.668 µM)	0.78 µg/mL (≈ 2.61 µM)	< 0.025 µg/mL	–
C[C@@H](O)[C@H]1C(=O)N2C(C(=O)O)=C(S[C@@H]3CN[C@H](C(=O)N(C)C)C3)[C@H](C)[C@H]12 [Compound C, meropenem, reference compound]	8.5%	41%	–	–	–	–	–	–	–	–	–	–	–	–	–	–
CC(=O)c1nc(C)n2cc(C3=C(C(=O)[O-])N4C(=O)[C@H]([C@@H](C)O)[C@H]4[C@H]3C)sc12.[Na+] [Example 19, Sodium (1S,5R,6S)-2-(7-Acetyl-5-methylimidazo[5,1-b]thiazol-2-yl)-6-((1R)-1-hydroxyethyl)-1-methyl-1-carbapen-2-em-3-carboxylate]	45%	77%	–	–	–	–	–	–	–	–	–	–	–	–	–	–
C[C@@H](O)[C@H]1C(=O)N2C(C(=O)[O-])=C(c3cn4cnc([S+](C)[O-])c4s3)[C@H](C)[C@H]12.[Na+] (stereo partly drawn) [Example 26, Sodium (1S,5R,6S)-6-((1R)-1-Hydroxyethyl)-2-(7-methanesulfinylimidazo[5,1-b]thiazol-2-yl)-1-methyl-1-carbapen-2-em-3-carboxylate]	11%	44%	0.1 µg/mL	0.05 µg/mL	0.1 µg/mL	0.05 µg/mL	< 0.025 µg/mL	< 0.025 µg/mL	0.78 µg/mL	6.25 µg/mL	0.05 µg/mL	0.2 µg/mL	1.56 µg/mL	0.39 µg/mL	< 0.025 µg/mL	–
CCC(=O)c1ncn2cc(C3=C(C(=O)[O-])N4C(=O)[C@H]([C@@H](C)O)[C@H]4C3)sc12.[Na+] [Example 27, Sodium (5R,6S)-6-((1R)-1-Hydroxyethyl)-2-(7-propionylimidazo[5,1-b]thiazol-2-yl)-1-carbapen-2-em-3-carboxylate]	1.2%	38%	0.05 µg/mL	0.2 µg/mL	0.1 µg/mL	< 0.025 µg/mL	0.05 µg/mL	< 0.025 µg/mL	0.39 µg/mL	0.78 µg/mL	0.05 µg/mL	0.2 µg/mL	0.39 µg/mL	0.1 µg/mL	0.05 µg/mL	–
Cc1nc(S(C)(=O)=O)c2sc(C3=C(C(=O)[O-])N4C(=O)[C@H]([C@@H](C)O)[C@H]4[C@H]3C)cn12.[Na+] [Example 44, Sodium (1S,5R,6S)-6-((1R)-1-Hydroxyethyl)-2-(7-methanesulfonyl-5-methylimidazo[5,1-b]thiazol-2-yl)-1-methyl-1-carbapen-2-em-3-carboxylate]	–	100%	0.1 µg/mL	0.78 µg/mL	1.56 µg/mL	< 0.025 µg/mL	0.05 µg/mL	< 0.025 µg/mL	0.78 µg/mL	3.13 µg/mL	0.1 µg/mL	0.78 µg/mL	12.5 µg/mL	0.78 µg/mL	0.05 µg/mL	survival (acute toxicity) [16]: All of the animal survived; survival (acute toxicity) [16, 17]: All of the animal survived
C[C@@H](O)[C@H]1C(=O)N2C(C(=O)[O-])=C(c3cn4cnc(S(C)(=O)=O)c4s3)[C@H](C)[C@H]12.[Na+] [Example 62, Sodium (1S,5R,6S)-6-((1R)-1-Hydroxyethyl)-2-(7-methanesulfonylimidazo[5,1-b]thiazol-2-yl)-1-methyl-1-carbapen-2-em-3-carboxylate]	1.5%	64%	0.05 µg/mL	0.05 µg/mL	0.05 µg/mL	< 0.025 µg/mL	< 0.025 µg/mL	< 0.025 µg/mL	0.39 µg/mL	1.56 µg/mL	0.05 µg/mL	0.1 µg/mL	1.56 µg/mL	0.2 µg/mL	< 0.025 µg/mL	stability to mouse DHP-I (in words) [1]: instability; survival (acute toxicity) [16]: All of the animal survived; survival (acute toxicity) [16, 17]: All of the animal survived
C[C@@H](O)[C@H]1C(=O)N2C(C(=O)[O-])=C(c3cn4cnc(C(=O)CO)c4s3)[C@H](C)[C@H]12.[Na+] [Example 71, Sodium (1S,5R,6S)-2-(7-Hydroxyacetylimidazo[5,1-b]thiazol-2-yl)-6-((1R)-1-hydroxyethyl)-1-methyl-1-carbapen-2-em-3-carboxylate]	<0.1%	33%	0.1 µg/mL	< 0.025 µg/mL	< 0.025 µg/mL	< 0.025 µg/mL	< 0.025 µg/mL	< 0.025 µg/mL	0.39 µg/mL	3.13 µg/mL	0.05 µg/mL	< 0.025 µg/mL	0.39 µg/mL	0.39 µg/mL	< 0.025 µg/mL	–
(1R,5S,6S)-6-((1R)-1-hydroxyethyl)-1-methyl-2-[(3S,5S)-5-(6-methylimidazo[5,1-b]thiazolium-2-yl)methylpyrrolidin-3-yl]thiocarbapen-2-em-3-carboxylic acid iodide [Compound B, reference compound]	–	–	–	–	–	–	–	–	–	–	–	–	–	–	–	minimum inhibiting concentrations (MIC) [3]: 0.39 µg/mL; minimum inhibiting concentrations (MIC) [4, 18]: 0.05 µg/mL; minimum inhibiting concentrations (MIC) [5]: 0.10 µg/mL; minimum inhibiting concentrations (MIC) [6, 18]: <0.025 µg/mL; minimum inhibiting concentrations (MIC) [7]: 0.05 µg/mL; minimum inhibiting concentrations (MIC) [8]: 0.10 µg/mL; minimum inhibiting concentrations (MIC) [9]: 1.56 µg/mL; minimum inhibiting concentrations (MIC) [10]: 6.25 µg/mL; minimum inhibiting concentrations (MIC) [11]: 0.78 µg/mL; minimum inhibiting concentrations (MIC) [12]: 0.10 µg/mL; minimum inhibiting concentrations (MIC) [13]: 0.10 µg/mL; minimum inhibiting concentrations (MIC) [14, 18]: 3.13 µg/mL; minimum inhibiting concentrations (MIC) [15]: <0.025 µg/mL
